Source: US6369049B1, “Treatment of mastitis” (Eli Lilly and Company, priority 1998, dated 2002)

Legend:
[1] = test system: Staphylococcus aureus 10092 (Newbould strain); assay: MIC vs. S. aureus 10092 (Newbould strain); assay type: cell-based; set-up: unit not given beside the values; details: Table 2a
Text: (§1) Tables 2 and 2a summarize the minimal inhibitory concentrations (MIC's) at which illustrative formula I compounds and cephalothin inhibit certain microorganisms that are associated with mastitis, such as Staphylococcus aureus 10092 (Newbould strain).

[2] = test system: Staphylococcus epidermidis 174B; assay: MIC vs. Staphylococcus epidermidis 174B; assay type: cell-based; set-up: unit not given beside the values; details: Table 2a
Text: as §1

[3] = test system: Staphylococcus aureus 168H; assay: MIC vs. Staphylococcus aureus 168H; assay type: cell-based; set-up: unit not given beside the values; details: Table 2a
Text: as §1

[4] = test system: Streptococcus agalactiae 150G; assay: MIC vs. Streptococcus agalactiae 150G; assay type: cell-based; set-up: unit not given beside the values; details: Table 2a
Text: as §1

[5] = test system: Streptococcus uberis 167I; assay: MIC vs. Streptococcus uberis 167I; assay type: cell-based; set-up: unit not given beside the values; details: Table 2a
Text: as §1

[6] = test system: Streptococcus dysgalactiae 152B; assay: MIC vs. Streptococcus dysgalactiae 152B; assay type: cell-based; set-up: unit not given beside the values; details: Table 2a
Text: as §1

[7] = test system: Staphylococcus aureus 170C; assay: MIC vs. Staphylococcus aureus 170C; assay type: cell-based; set-up: unit not given beside the values; details: Table 2a
Text: as §1

[8] = test system: Streptococcus faecalis; assay: MIC vs. Streptococcus faecalis; assay type: cell-based; set-up: unit not given beside the values; details: Table 2a
Text: as §1

[9] = test system: Pasteurella haemolytica 128K (bovine); assay: MIC vs. Pasteurella haemolytica 128K (bovine); assay type: cell-based; details: Table 3a; incubated at 37° overnight
Text: The formula I compounds are also active against certain Gram-negative species. Tables 3 and 3a show the MIC's of Formula I compounds against certain Gram-negative species.

[10] = test system: Staphylococcus aureus 10092 (Newbould); assay: Induced Staphylococcus aureus mastitis model in lactating goats; assay type: in vivo; details: S. aureus 10092 challenge, in peanut oil, approximately 25 mg/5 mL dose per half, 2 consecutive milkings 12 hours apart
Text: Sixteen lactating goats were selected based on the absence of Staphylococcus aureus in pre-challenge milk cultures. Maintenance ration was provided to the animals throughout the study. The goats were milked twice each day using a portable goat milker.
Milk samples were collected during the morning milking. One day prior to challenge, milk culture samples were collected from each half of the test animals to determine if there was a pre-existing infection. Additionally, a sample was collected from each half for Somatic Cell Count (SCC) determination. A milk culture sample and a sample for SCC were collected from each half 24 hours post-challenge and on Days +4 to +6, +8, +11, +13, and +15.
Udder scoring was performed during each milking using the following table:
General health observations and body temperature were recorded once a day following milking during the challenge and treatment periods.
Milk samples were submitted for analysis for SCC using an electronic somatic cell counting system.
Milk culture samples were assayed for bacterial culture by plating 1.0 mL and 0.1 mL of the milk sample directly onto duplicate blood agar plates. Additionally, dilutions […] the milk sample were plated. Plates were incubated overnight at 37° C.
Staphylococcus aureus 10092 (Newbould) was used as the challenge strain. The challenge culture was grown in Tryptic Soy Broth (TSB) from a lyovial stock overnight (16 hours) at 37° C. TSB (100 mL) was inoculated with 1 mL of the overnight culture and incubated at 37° C. with shaking for 4 hours. The culture was centrifuged at 9000 rpm for 10 minutes at 10° C.; supernatant was removed and the pellet was resuspended in phosphate buffered saline (PBS). Optimum O.D. reading at 650 nm was approximately 0.035. A 10-fold dilution series was prepared with saline to determine the CFU/mL, plating 10^−5, 10^−6, and 10^−7 dilutions onto duplicate blood agar plates. The 10^−7 dilution (approximately 10 CFU/mL) was used for the challenge material, yielding a challenge of 50 CFU/half with a 5-mL infusion.
Sixteen goats were used for the trial. During a one day pre-challenge period, milk samples were collected and temperatures were taken during the morning milking. Milk/udder evaluations were documented during the morning and afternoon milkings.
Staphylococcus aureus 10092 was infused into both halves in each of the goats. The goats were challenged following the morning milking and milked in the afternoon on the day of challenge. The challenge inoculum volume was 5 mL/half containing approximately 50 CFU S. aureus.
For the 24 hr post-challenge period milk samples were collected during the morning milking, and milk/udder evaluations made during the morning and afternoon milking.
Treatment was started at 36 hours post-challenge. Milk samples were collected for culture and SCC 24 hours post-challenge, prior to the morning milking, and the treatment period started following the afternoon milking.
Eight halves (4 goats) each were treated for 2 consecutive milkings 12 hours apart, following milking. […]
Following treatment, the goats were milked and observed for 15 days. Milk samples were collected on Days +4 to +6, +8, +11, +13, and +15 to determine if the infection had cleared.
Establishment of mastitis was determined by bacterial culturing, severity of udder scoring, somatic cell count results, and body temperature.
On Days +2 to +6, milk samples were collected for a colorimetric assay to determine whether the antibiotic was still present in the milk.

| MIC vs. Staphylococcus aureus 10,092 [1] | MIC vs. Staphylococcus epidermidis 174B [2] | MIC vs. Staphylococcus aureus 168H [3] | MIC vs. Streptococcus agalactiae 150G [4] | MIC vs. Streptococcus uberis 167I [5] | MIC vs. Streptococcus dysgalactiae 152B [6] | MIC vs. Staphylococcus aureus 170C [7] | MIC vs. Streptococcus faecalis [8] | SMILES | MIC against Pasteurella haemolytica Strain 128K [9] | % Bacteriologic Cures [10] [%] |
| --- | --- | --- | --- | --- | --- | --- | --- | --- | --- | --- |
| 0.5 | 0.5 | 2 | 0.5 | 32 | 0.25 | 4 | 32 | O=C(COc1cc(F)cc(F)c1)NC1C(=O)N2C(C(=O)O)=C(Cl)CSC12 (stereo not shown) [Compound 6] | 4 | 75 |
| 1 | 1 | 2 | 1 | 16 | 0.5 | 4 | 16 | O=C(COc1c(F)cc(F)cc1F)NC1C(=O)N2C(C(=O)O)=C(Cl)CSC12 (stereo not shown) [Compound 5] | 16 | 100 |
| 4 | 2 | 16 | 2 | 128 | 2 | 1 | >128 | O=C(COc1c(F)c(F)c(F)c(F)c1F)NC1C(=O)N2C(C(=O)O)=C(Cl)CCC12 (stereo not shown) [Compound 7] | 32 | 13 |
| 0.5 | 0.5 | 0.5 | 0.5 | 4 | 0.5 | 0.5 | 8 | O=C(CSc1c(F)c(F)c(F)c(F)c1F)NC1C(=O)N2C(C(=O)O)=C(Cl)CSC12 (stereo not shown) [Compound 9] | 4 | 63 |
